Experimental data taken from patent publication US20010034454A1, “Description anti-mitotic agents which inhibit tubulin polymerization” (BYLOR UNIVERSITY AND ARIZONA DESEASE CONTROL RESEARCH …, priority 1998, published 2001).
Converted amounts (≈) assume the structure as drawn. Where two headings read alike, the source gives them in different places.

Tests used:
[1] = test system: T1, tubulin; test: Tubulin polymerization assay; format: biochemical, bovine; conditions: for IC50: purified tubulin […], GTP-induced, 350 nm, final steady-state number for compounds other than 1A and 10A, read-out: IC50 for inhibition of tubulin polymerization
T1 construct: Purified tubulin is obtained from bovine brain cells as described in Hamel and Lin
Description: The ability of the various above described compounds to inhibit tubulin polymerization can be determined by in vitro assay. A suitable assay system is that described by Bai et al. A method for purifying tubulin from bovine brain cells is described by Hamel and Lin.
IC50 values for tubulin polymerization were determined according to the procedure described in Bai et al. Purified tubulin is obtained from bovine brain cells as described in Hamel and Lin. Various amounts of inhibitor were preincubated for 15 minutes at 37° C. with purified tubulin. After the incubation period, the reaction was cooled and GTP was added to induce tubulin polymerization. Polymerization was then monitored in a Gilford spectrophotometer at 350 nm. The final reaction mixtures (0.25 ml) contained 1.5 mg/ml tubulin, 0.6 mg/ml microtubule-associated proteins (MAPs), 0.5 mM GTP, 0.5 mM MgCl2, 4% DMSO and 0.1 M 4-morpholineethanesulfonate buffer (MES, pH 6.4). […]

[2] = test system: NCI-H460; test: Growth inhibitory activity, human cancer cell line NCI-H460 (SRB); format: cell-based; conditions: Lung-NSC NCI-H460
Description: (§1) The assay used is described in Monks et al. Briefly, the cell suspensions, diluted according to tho particular cell type and the expected target cell density (5,000-40,000 cells per well based on cell growth characteristics), were added by pipet (100 μl) to 96-well microtiter plates. Inoculates were allowed a preincubation time of 24-28 hours at 37° C. for stabilization. Incubation with the inhibitor compounds lasted for 48 hours in 5% CO2 atmosphere and 100% humidity. Determination of cell growth was done by in situ fixation of cells, followed by staining with a protein-binding dye, sulforhodamine B (SRB), which binds to the basic amino acids of cellular macromolecules. The solubilized stain was measured spectrophotometrically.

[3] = test system: BXPC-3; test: Human cancer cell line studies, BXPC-3; format: cell-based; conditions: Pancreas adn BXPC-3
Description: as §1

[4] = test system: SK-N-SH; test: Human cancer cell line studies, SK-N-SH; format: cell-based; conditions: Neuroblast SK-N-SH
Description: as §1

[5] = test system: SW1736; test: Human cancer cell line studies, SW1736; format: cell-based; conditions: Thyroid ca SW1736
Description: as §1

[6] = test system: FADU; test: Human cancer cell line studies, FADU; format: cell-based; conditions: Pharynx-sqam FADU
Description: as §1

[7] = test system: DU-145; test: Human cancer cell line studies, DU-145; format: cell-based; conditions: Prostate DU-145
Description: as §1

[8] = test system: P388 leukemia cells; test: Cytotoxic assay with P388 leukemia cells; format: cell-based, mouse
Description: The tubulin polymerization compounds can also be tested for their ability to inhibit tumor cell growth.

[9] = Homo sapiens, SW-1736, read-out: GI50
[10] = P388 mouse leukemia, dosage required to inhibit 50% of cell growth
[11] = Mus musculus, P388, read-out: ED50

| SMILES | IC50 [1] | GI50 ([2]; Homo sapiens, read-out: GI50) | GI50 ([3]; Homo sapiens, read-out: GI50) | GI50 ([4]; Homo sapiens, read-out: GI50) | GI50 [5, 9] | GI50 ([6]; Homo sapiens, read-out: GI50) | GI50 ([7]; Homo sapiens, read-out: GI50) | also measured |
| --- | --- | --- | --- | --- | --- | --- | --- | --- |
| COc1ccc2c(c1)CCC=C2C(=O)c1cc(OC)c(OC)c(OC)c1 [Compound 26D, 1-(3′,4′,5′-trimethoxybenzoyl)-6-methoxy-3,4-dihydronaphthalene] | 1.7 µM | 0.0033 µg/mL (≈ 0.00931 µM) | 0.003 µg/mL (≈ 0.00846 µM) | < 0.001 µg/mL | 0.0048 µg/mL (≈ 0.0135 µM) | 0.0013 µg/mL (≈ 0.00367 µM) | 0.0038 µg/mL (≈ 0.0107 µM) | tubulin polymerization curve at 4 μM ([1]; 4 μM): total flat |
| COc1ccc(-c2sc3cc(OC)ccc3c2C(=O)c2c(F)c(F)c(F)c(F)c2F)cc1 [Compound 15A, 3-(2′,3′,4′,5′,6′-pentafluorobenzoyl)-2-(4′-methoxyphenyl)-6-methoxybenzo[b]thiophene] | > 40 µM | 7.9 µg/mL (≈ 17 µM) | 5.9 µg/mL (≈ 12.7 µM) | 1.4 µg/mL (≈ 3.01 µM) | 4 µg/mL (≈ 8.61 µM) | 1.3 µg/mL (≈ 2.8 µM) | 5 µg/mL (≈ 10.8 µM) |  |
| COc1ccc(-c2sc3cc(OC)ccc3c2C(=O)c2c(OC)cccc2OC)cc1 [Compound 2A, 3-(2′,6′-dimethoxybenzoyl)-2-(4′-methoxyphenyl)-6-methoxybenzo[b]thiophene] |  |  |  |  |  |  |  | tubulin polymerization inhibition [1]: no observable tubulin polymerization inhibition activity; activity against P388 leukemia cells [8]: failed to show measurable activity against the leukemia cells; ED50 [8, 10]: >100 µg/mL; IC50 ([8]; P388 mouse leukemia, dosage required to inhibit 50% of cell growth, read-out: ED50 (the source's name)): > 100 µg/mL |
| COc1cc(/C=C\c2cc(OC)c(OC)c(OC)c2)ccc1[N+](=O)[O-] [Compound 27E, (Z)-1-(3′-methoxy-4′-nitrophenyl)-2-(3″,4″,5″-trimethoxyphenyl) ethene] | > 40 µM | 2.3 µg/mL (≈ 6.66 µM) | 1.9 µg/mL (≈ 5.5 µM) | 2.1 µg/mL (≈ 6.08 µM) | 3.3 µg/mL (≈ 9.56 µM) | 1.1 µg/mL (≈ 3.19 µM) | 2.6 µg/mL (≈ 7.53 µM) |  |
| COc1cc(/C=C\c2cc(OC)c(OC)c(OC)c2)ccc1N=[N+]=[N-] [Compound 30E, (Z)-1-(4′azido-3′-methoxyphenyl)-2-(3″,4″,5″-trimethoxyphenyl)ethene] | 1.5 µM | 0.35 µg/mL (≈ 1.03 µM) | 0.3 µg/mL (≈ 0.879 µM) | 0.24 µg/mL (≈ 0.703 µM) | 0.45 µg/mL (≈ 1.32 µM) | 0.42 µg/mL (≈ 1.23 µM) | 0.7 µg/mL (≈ 2.05 µM) |  |
| COc1ccc(/C=C\c2cc(OC)c(OC)c(OC)c2)cc1N(Cc1ccccc1)Cc1ccccc1 [5-[(Z)-2-(3′,4′,5′-trimethoxyphenyl)ethenyl]-2-methoxy-N,N-bis-(phenylmethyl)aniline, reference compound] |  |  |  |  |  |  |  | ED50 [8, 10]: 33.9 µg/mL (≈ 68.4 µM) |
| COc1ccc(-c2sc3ccccc3c2C(=O)c2cc(OC)c(OC)c(OC)c2)cc1 [Compound 16A, 3-(3′,4′,5′-trimethoxybenzoyl)-2-(4′-methoxyphenyl)-benzo[b]thiophene] | > 40 µM | 2.7 µg/mL (≈ 6.21 µM) | 1.7 µg/mL (≈ 3.91 µM) | 0.83 µg/mL (≈ 1.91 µM) | 4.6 µg/mL (≈ 10.6 µM) | 0.63 µg/mL (≈ 1.45 µM) | 4.8 µg/mL (≈ 11 µM) |  |
| COc1ccc2c(c1)CCC=C2c1cc(OC)c(OC)c(OC)c1CO [Compound 25D, 1-(hydroxymethyl-3′,4′,5′-trimethoxyphenyl)-6-methoxy-3,4-dihydronaphthalene] | > 40 µM | 1.5 µg/mL (≈ 4.21 µM) | 0.53 µg/mL (≈ 1.49 µM) | 0.3 µg/mL (≈ 0.842 µM) | 2.1 µg/mL (≈ 5.89 µM) | 0.51 µg/mL (≈ 1.43 µM) | 2.6 µg/mL (≈ 7.29 µM) |  |
| COc1ccc(-c2cc3c(OC)ccc(C(=O)c4cc(OC)c(OC)c(OC)c4)c3s2)cc1 [Compound 13A, 7-(3′,4′,5′-trimethoxybenzoyl)-2-(4′-methoxyphenyl)-4-methoxybenzo[b]thiophene] | > 40 µM | > 10 µg/mL | > 10 µg/mL | > 10 µg/mL | > 10 µg/mL | 7.8 µg/mL (≈ 16.8 µM) | > 10 µg/mL |  |
| COc1ccc(-c2sc3cc(OC)ccc3c2C(=O)/C=C/c2cc(OC)c(OC)c(OC)c2)cc1 [Compound 17A, E-3-[3′-(3′,4′,5′-trimethoxyphenyl)cinnamoyl]-2-(4′-methoxyphenyl)-6-methoxybenzo[b]thiophene] | > 40 µM | 3.9 µg/mL (≈ 7.95 µM) | 2.3 µg/mL (≈ 4.69 µM) | 1.3 µg/mL (≈ 2.65 µM) | 5.2 µg/mL (≈ 10.6 µM) | 1.8 µg/mL (≈ 3.67 µM) | 7.5 µg/mL (≈ 15.3 µM) |  |
| COc1ccc(/C=C\c2cc(OC)c(OC)c(OC)c2)cc1[N+](=O)[O-] [Compound 31E, (Z)-1-(4″-methoxy-3″-nitrophenyl)-2-(3′,4′,5′-trimethoxyphenyl)ethene] |  |  |  |  |  |  |  | ED50 [8, 10]: 4.0 µg/mL (≈ 11.6 µM); GI50 [2]: 0.043 µg/mL (≈ 0.125 µM); GI50 [3]: 0.037 µg/mL (≈ 0.107 µM); GI50 [4]: >10 µg/mL; GI50 [5]: 0.056 µg/mL (≈ 0.162 µM); GI50 [6]: 2.6 µg/mL (≈ 7.53 µM); GI50 [7]: 0.046 µg/mL (≈ 0.133 µM) |
| COc1ccc(-c2sc3cc(OC)ccc3c2C(=O)c2ccc(N(C)C)cc2)cc1 [Compound 11A, 3-(4′-N,N-dimethylaminobenzoyl)-2-(4′-methoxyphenyl)-6-methoxybenzo[b]thiophene] | > 40 µM | > 10 µg/mL | > 10 µg/mL | > 10 µg/mL | > 10 µg/mL | > 10 µg/mL | > 10 µg/mL |  |
| COc1ccc(-c2sc3cc(OC)ccc3c2C(=O)c2cc(F)c(F)c(F)c2)cc1 [Compound 14A, 3-(3′,4′,5′-trifluorobenzoyl)-2-(4′-methoxyphenyl)-6-methoxybenzo[b]thiophene] | > 40 µM | > 10 µg/mL | > 10 µg/mL | > 10 µg/mL | > 10 µg/mL | 13.6 µg/mL (≈ 31.7 µM) | > 10 µg/mL |  |
| COc1ccc(/C=C\c2cc(OC)c(OC)c(OC)c2)cc1N [Compound 33E, (Z)-1-(3′-amino-4′-methoxyphenyl)-2-(3″,4″,5″-trimethoxyphenyl)ethene] | […] | 0.00068 µg/mL (≈ 0.00216 µM) | 0.0013 µg/mL (≈ 0.00412 µM) | < 0.001 µg/mL | < 0.001 µg/mL | < 0.001 µg/mL | 0.00096 µg/mL (≈ 0.00304 µM) |  |
| COc1ccc(-c2sc3cc(OC)ccc3c2C(=O)c2cc(OC)cc(OC)c2)cc1 [Compound 3A, 3-(3′,5′-dimethoxybenzoyl)-2-(4′-methoxyphenyl)-6-methoxybenzo[b]thiophene] |  |  |  |  |  |  |  | tubulin polymerization inhibition [1]: no observable tubulin polymerization inhibition activity; activity against P388 leukemia cells [8]: failed to show measurable activity against the leukemia cells; IC50 [8, 11]: > 100 µg/mL; ED50 [8, 10]: >100 µg/mL |
| CCOc1ccc(-c2sc3cc(OCC)ccc3c2C(=O)c2cc(OC)c(OC)c(OC)c2)cc1 [Compound 18A, 3-(3′,4′,5′-trimethoxybenzoyl)-2-(4′-ethoxyphenyl)-6-ethoxybenzo[b]thiophene] | > 40 µM | 1.4 µg/mL (≈ 2.84 µM) | 1.6 µg/mL (≈ 3.25 µM) | 0.33 µg/mL (≈ 0.67 µM) | 2.3 µg/mL (≈ 4.67 µM) | 0.6 µg/mL (≈ 1.22 µM) | 3.6 µg/mL (≈ 7.31 µM) |  |
| COc1ccc(-c2cc3c(OC)ccc(C(=O)c4cc(F)c(F)c(F)c4)c3s2)cc1 [Compound 12A, 7-(3′,4′,5′-trifluorobenzoyl)-2-(4′-methoxyphenyl)-4-methoxybenzo[b]thiophene] | > 40 µM | > 10 µg/mL | > 10 µg/mL | > 10 µg/mL | > 10 µg/mL | 6.7 µg/mL (≈ 15.6 µM) | > 10 µg/mL |  |
| COc1ccc(-c2sc3cc(OC)ccc3c2C(=O)c2cc(OC)c(O)c(OC)c2)cc1 [Compound 19A, 3-(4′-hydroxy-3′,5′-dimethoxybenzoyl)-2-(4′-methoxyphenyl)-6-methoxybenzo[b]thiophene] |  |  |  |  |  |  |  | tubulin polymerization inhibition [1]: no observable tubulin polymerization inhibition activity; activity against P388 leukemia cells [8]: failed to show measurable activity against the leukemia cells; IC50 [8, 11]: > 100 µg/mL; ED50 [8, 10]: >100 µg/mL |
| CCOc1c(OC)cc(C(=O)c2c(-c3ccc(OC)cc3)sc3cc(OC)ccc23)cc1OC [Compound 10A, 3-(4′-ethoxy-3′,5′-dimethoxybenzoyl)-2-(4′-methoxyphenyl)-6-methoxybenzo[b]thiophene] |  | 0.32 µg/mL (≈ 0.669 µM) | 0.22 µg/mL (≈ 0.46 µM) | 0.17 µg/mL (≈ 0.355 µM) | 0.31 µg/mL (≈ 0.648 µM) | 0.31 µg/mL (≈ 0.648 µM) | 0.35 µg/mL (≈ 0.731 µM) | tubulin polymerization inhibition [1]: clear inhibition of tubulin polymerization of rate, but not of plateau; polymerization curves at several concentrations ([1]; 4, 10, and 40 μM): nearly identical |
